From patent publication US12414918B2, “Pharmaceutical composition of lipid nanoparticle for delivering nucleic acid drug containing trehalose derivative and novel structure-maintaining lipid compound” (SML BIOPHARM CO., LTD., priority 2021, dated 2025)

System: Renilla luciferase (R/L) expression
Test: Evaluation of delivery efficiency by detection of protein expression level (R/L mRNA-LNP injected intradermally into mouse ear, luminescence of ear lysate)
Assay type: in vivo, ICR mice
Settings: ionizable lipid:trehalose-based lipid:DOPE:cholesterol (or substitute):DMG-PEG 25:25:10:38.5:1.5
Procedure: An RNA platform in which a nucleic acid sequence encoding Renilla luciferase (R/L), which has an IRES element derived from encephalomyocarditis virus (EMCV) and is a known reporter gene, was inserted as a target sequence was constructed. The template DNA was designed and the nucleic acid molecule of the single-stranded RNA platform was constructed using an IVT procedure.
Lipid nanoparticles were prepared from 0.625 mg/mL of an RNA solution (50 mM sodium citrate buffer, 110 mM NaCl, pH=4.0) and a lipid-mixture solution (ethanol) using a laboratory mixer and emulsifier (NanoAssembir Spark, Precision NanoSystems) and subjected to solvent conversion with physiological saline using a filter tube for centrifugation (UFC5010, Amicon). […]
The experiment was performed according to the following procedure. […] R/L, which was actually tested, expression, and maintenance were detected at two points of time: after 6 hours and 24 hours.
Each mouse was anesthetized using a respiratory anesthetic, and a drug that satisfied the experimental conditions was injected into the mouse through an insulin syringe. […] Then, 20 μl of the mixture was transferred to a white 96-well plate, 100 μl of Renilla luciferase assay substrate from Promega Corporation was added thereto, and luminescence was measured to compare expression.

SMILES | usability as cholesterol substitute in lipid nanoparticles
CCCCOC(=O)CC[C@H](C)[C@H]1CC[C@H]2[C@@H]3CC[C@@H]4C[C@H](O)CC[C@]4(C)[C@H]3CC[C@]12C [Formula 4] | appropriate cholesterol substitutes
CCC(C)CCOC(=O)CC[C@H](C)[C@H]1CC[C@H]2[C@@H]3CC[C@@H]4C[C@H](O)CC[C@]4(C)[C@H]3CC[C@]12C (some centres unmarked) [Formula 5] | appropriate cholesterol substitutes
